Measurements as given in PMC4624469 (Synapse (New York, N.Y.), 2015).
pKd, pKi: −log10 of the molar value. “And” between values parts separate entries of the source, which are not always exact repeats. Equal entries are not always repeated. “Also recorded” adds a separate entry of the source. Where two headings read alike, the source gives them in different places.

Assays:
[1] = system: dopamine D2 receptor (D2R)/D3R
[2] = system: dopamine D2 receptor (D2R)/D3R; assay: In vivo rat PET: drug-induced displacement of 18F-fallypride; conditions: for 18F-Fallypride displacement in vivo (change), Dorsal Striatum / 18F-Fallypride displacement in vivo (change), Ventral Striatum: 90 min post 18F-fallypride
[3] = reason for HPbCD vehicle; ref Xi et al., 2004; Gilbert et al. 2005; cited from earlier work
D2 Receptor = conditions: read-out: Binding Affinity D2 Receptor, cited from earlier work
D3 Receptor [4] = conditions: read-out: Binding Affinity D3 Receptor, cited from earlier work
D3 Receptor [5] = assay: Binding affinity of drugs at D3 receptor; conditions: for In Vitro D3 Selectivity: D2/D3 affinity ratio of the cited Table 1 values
D2RLong = conditions: read-out: D2RLong Ki; with 3H-spiperone; ref Stark et al., 2007; cited from earlier work
D2R/D3R [6] = assay: PET/CT of 18F-fallypride in wild type and D2R knock-out mice; format: in vivo
D2R/D3R [7] = molecular target: D2R/D3R (Mus musculus, UniProt P30728); assay: as above; format: in vivo; conditions: D2R knock-out mice, PET
D2R/D3R (Mus musculus, UniProt P30728), sequence (P30728 whole entry): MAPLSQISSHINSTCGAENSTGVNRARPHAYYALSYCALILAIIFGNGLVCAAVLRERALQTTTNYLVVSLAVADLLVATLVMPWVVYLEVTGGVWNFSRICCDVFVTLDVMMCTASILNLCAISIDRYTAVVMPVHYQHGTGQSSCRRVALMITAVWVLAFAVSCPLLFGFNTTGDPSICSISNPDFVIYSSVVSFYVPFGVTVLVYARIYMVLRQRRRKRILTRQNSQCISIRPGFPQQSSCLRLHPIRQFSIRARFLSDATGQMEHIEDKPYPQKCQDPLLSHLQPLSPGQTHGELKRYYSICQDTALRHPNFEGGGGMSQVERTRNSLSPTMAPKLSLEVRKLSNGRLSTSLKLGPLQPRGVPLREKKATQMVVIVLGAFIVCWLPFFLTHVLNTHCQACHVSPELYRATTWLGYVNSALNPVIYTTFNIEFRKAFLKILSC

[8] = system: dopamine D3R, D2Rhigh and D2Rlow receptors; assay: Approximate levels of 18F-fallypride bound to receptor subtypes; conditions: in vivo levels in striatum
D2RShort = conditions: read-out: D2RShort Ki; with 3H-spiperone; ref Stark et al., 2007; cited from earlier work
D3R [9] = conditions: human brain; ref Tziortzi et al., 2011; cited from earlier work
D3R [10] = conditions: cited from earlier work
[11] = ref Mukherjee et al., 2000; cited from earlier work
[12] = molecular target: D2R high-affinity (D2Rhigh) sites; conditions: read-out: Kd for D2Rhigh, 1996, cited from earlier work
[13] = system: dopamine D2 receptor (D2R)/D3R; format: binding, rabbit
[14] = Brain uptake / approximated brain concentration after intravenous injection; format: in vivo, rat; conditions: assuming uptake like 11C-5-OH-DPAT
[15] = rat sagittal slices, 10 µM drug, dorsal and ventral striata
[16] = BPND KO/BPND WT, mice, listed as 18F-fallypride
[17] = wild-type mice, PET, cerebellum reference
[18] = In Vitro and In Vivo PET, ref Mukherjee et al., 2000, Shi et al., 2004
[19] = intravenous dose of 0.015 mg/kg

COc1ccccc1N1CCN(CCCCNC(=O)c2ccc3ccccc3c2)CC1 [BP 897]
18F-fallypride displaced [1, 15]: more than 90%
18F-fallypride displaced, dorsal and ventral striatum ([2]; 3 mg/kg iv at 90 min post 18F-fallypride, rat PET): 24–29%
Effect on 18F-fallypride binding in DSTR and VSTR ([2]; 3.2 mg/kg at 90 min, rat PET): visible reduction
18F-Fallypride displacement in vivo (change), Dorsal Striatum ([2]; 3.2 mg/kg iv in HPbCD, rat PET): −29.3%
18F-Fallypride displacement in vivo (change), Ventral Striatum ([2]; 3.2 mg/kg iv in HPbCD, rat PET): −24.0%
Nondisplaced 18F-Fallypride ([2]; 3.2 mg/kg iv, rat PET): 70 to 76%
18F-fallypride displaced in vivo ([2]; rat PET, striatum, dose not given at place): > 20%
Water solubility [3]: low water solubility

O=C(NCCCCN1CCN(c2cccc(Cl)c2Cl)CC1)c1ccc2c(c1)Cc1ccccc1-2 [NGB 2904]
pKi (D2 Receptor; ref Heiderbreder et al., 2010): 6.95
18F-fallypride displaced [1, 15]: 40 to 50%
Effect on 18F-fallypride binding in dorsal and ventral striatum ([2]; 4 mg/kg iv at 90 min, rat PET): no measureable reduction; also recorded: not evident
18F-Fallypride displacement in vivo (change), Dorsal Striatum ([2]; 4.0 mg/kg iv in HPbCD, rat PET): Not significant
18F-Fallypride displacement in vivo (change), Ventral Striatum ([2]; 4.0 mg/kg iv in HPbCD, rat PET): Not significant
Nondisplaced 18F-Fallypride ([2]; 4.0 mg/kg iv, rat PET): 100%
Water solubility [3]: low water solubility
pKi (D3 Receptor [4]; ref Heiderbreder et al., 2010): 8.70
D3R selectivity (over D2R) (D3 Receptor [5]): > 50 fold
In Vitro D3 Selectivity (D3 Receptor [5]): 56

C=CCN1CCC[C@H]1CNC(=O)c1cc(CCC[18F])cc(OC)c1OC [18F-Fallypride, (S)-N-[(1-allyl-2-pyrrolidinyl)methyl]-5-(3-[18F]fluoropropyl)-2,3-dimethoxybenzamide]
pKi (D2RLong): 8.66
fD3 (fraction of total binding to D3 receptors), Dorsal Striatum (D2R/D3R [6]; BPND KO/BPND WT, mice): 0%
fD3 (fraction of total binding to D3 receptors), Hypothalmus (D2R/D3R [6]; BPND KO/BPND WT, mice): 98.5%
fD3 (fraction of total binding to D3 receptors), Substantia nigra/ Ventral tegmental area (D2R/D3R [6]; BPND KO/BPND WT, mice): 99.2%
fD3 (fraction of total binding to D3 receptors), Ventral Striatum (D2R/D3R [6]; BPND KO/BPND WT, mice): 15.6%
fD3 (fraction of total binding to D3 receptors), Hypothalmus (D2R/D3R [6]; [16]): ~ 100%
fD3 (fraction of total binding to D3 receptors), Substantia nigra/ Ventral tegmental area (D2R/D3R [6]; [16]): ~ 100%
fD3 (fraction of total binding to D3 receptors), Ventral Striatum (D2R/D3R [6]; [16]): 15%
BPND WT, Dorsal Striatum (D2R/D3R [6]; [17]): 5.30
BPND WT, Hypothalmus (D2R/D3R [6]; [17]): 1.38
BPND WT, Substantia nigra/ Ventral tegmental area (D2R/D3R [6]; [17]): 0.81
BPND WT, Ventral Striatum (D2R/D3R [6]; [17]): 3.51
BPND KO, Hypothalmus (D2R/D3R [7]): 1.36
BPND KO, Substantia nigra/ Ventral tegmental area (D2R/D3R [7]): 0.81
BPND KO, Ventral Striatum (D2R/D3R [7]): 0.55
BPND KO, Dorsal Striatum (D2R/D3R [7]; small negative values listed as 0): 0
Level of 18F-fallypride bound to D2Rhigh [8]: ~60%
Level of 18F-fallypride bound to D2Rlow [8]: ~20%
Level of 18F-fallypride bound to D3R [8]: ~20%
pKi (D2RShort): 8.68

CCCN1CCO[C@@H]2c3cc(O)ccc3CC[C@H]21 [PHNO]
pKi (D2 Receptor; ref Willeit et al., 2006): 8.07
pKi (D3 Receptor [4]; ref Willeit et al., 2006): 9.80
In Vitro D3 Selectivity (D3 Receptor [5]): 53

CC[11CH2]N1CCO[C@@H]2c3cc(O)ccc3CCC21 (some centres unmarked) [11C-PHNO]
D3R binding fraction, substantia nigra and hypothalamus (D3R [9]): 100%
D3R binding fraction, ventral striatum (D3R [9]): 26%

CCCN(CCCCC[18F])C1CCc2c(O)cccc2C1 (racemic) [18F-5-OH-FPPAT, (R,S)-2-(N-propyl-N-(5-^18F-fluoropentyl)-5-hydroxyaminotetralin]
Findings (receptor subtype binding) (D3R [10]; [18]): D2Rhigh and some D3R (yet to be confirmed)

CCCN([11CH2]CC)C1CCc2c(O)cccc2C1 (racemic) [11C-5-OH-DPAT, 11C-(R,S)-5-hydroxy-2-(di-n-propylamino)tetralin]
Findings (receptor subtype binding) (D3R [10]; [18]): D2Rhigh and some D3R (yet to be confirmed)
Uptake in the rat brain [11]: approximately 1 % of the injected dose

CCCN(CC=C[125I])C1CCc2ccc(O)cc2C1 (centres unmarked) [125I-7-OH-PIPAT]
Findings (receptor subtype binding) (D3R [10]; In Vitro, ref Mugnani et al., 2013, Gurevich and Joyce, 1999): D3R binding; D2Rhigh binding not known

C=CCN1CCC[C@H]1CNC(=O)c1cc(CCCF)cc(OC)c1OC [Fallypride]
pKi (D2 Receptor; ref Stark et al., 2007): 8.68

CCCN(CCC)C1CCc2ccc(O)cc2C1 (centres unmarked) [7-OH-DPAT]
pKd ([12]; ref van Vliet et al.): 7.25 and 7.05

CCCN(CCC)C1CCc2ccc(O)cc2C1 (centres unmarked) [3H-7-OH-DPAT]
Findings (receptor subtype binding) (D3R [10]; In Vitro, ref Gonzalez and Sibley, 1995): D3R binding at low concentrations and D2Rhigh at higher concentrations

CCCN(CCC)[C@@H]1CCc2ccc(O)cc2C1 [(R)-7-OH-DPAT]
18F-fallypride binding reduced by ([13]; 10 nM drug, rabbit nucleus accumbens): 10–15%
18F-fallypride binding reduced by ([13]; 10 µM drug, all regions in rabbit): ≥ 85%
18F-fallypride displaced ([13]; rabbit sagittal slices, lower doses, olfactory tubercle and nucleus accumbens): approx. 15%
18F-fallypride binding reduced by ([1]; 10 nM drug, rat ventral striatum (VST) and dorsal striatum (DST)): 10–15%
18F-fallypride binding reduced by ([1]; 10 µM drug, all regions in rat): ≥ 85%
18F-fallypride displaced ([1]; rat horizontal slices, 100 nM drug): approx. 30%
18F-fallypride displaced ([1]; rat horizontal slices, 10 µM drug): exceeded 80%
18F-fallypride displaced ([1]; rat horizontal slices, micromolar concentration): about 60%
18F-fallypride displaced ([1]; rat sagittal slices, 10 µM drug, dorsal striatum): approx. 75%
18F-Fallypride displacement in vivo (change), Dorsal Striatum ([2]; 0.015 mg/kg iv, rat PET): −22% and −21.5%
18F-Fallypride displacement in vivo (change), Ventral Striatum ([2]; 0.015 mg/kg iv, rat PET): −29% and −28.7%
Nondisplaced 18F-Fallypride ([2]; 0.015 mg/kg iv, rat PET): 71 to 78%
displacement of 18F-fallypride in the ventral striatum ([2]; 0.015 mg/kg iv, rat PET): 29%
dorsal striatum 18F-fallypride binding reduced by ([2]; 0.015 mg/kg iv, rat PET): 22%
18F-Fallypride displacement in vivo (change), Dorsal Striatum ([2]; 0.06 mg/kg iv, rat PET): −32.9%
18F-Fallypride displacement in vivo (change), Ventral Striatum ([2]; 0.06 mg/kg iv, rat PET): −43.4%
Nondisplaced 18F-Fallypride ([2]; 0.06 mg/kg iv, rat PET): 57 to 67%
18F-Fallypride displacement in vivo (change), Dorsal Striatum ([2]; 0.38 mg/kg iv, rat PET): −67.9%
18F-Fallypride displacement in vivo (change), Ventral Striatum ([2]; 0.38 mg/kg iv, rat PET): −75%
Nondisplaced 18F-Fallypride ([2]; 0.38 mg/kg iv, rat PET): 25 to 32%
18F-Fallypride displacement in vivo (change), Dorsal Striatum ([2]; 1.88 mg/kg iv, rat PET): −58% and −57.6%
18F-Fallypride displacement in vivo (change), Ventral Striatum ([2]; 1.88 mg/kg iv, rat PET): −77% and −76.7%
Nondisplaced 18F-Fallypride ([2]; 1.88 mg/kg iv, rat PET): 23 to 42%
displacement of 18F-fallypride in the ventral striatum ([2]; 1.88 mg/kg iv, rat PET): 77%
dorsal striatum 18F-fallypride binding reduced by ([2]; 1.88 mg/kg iv, rat PET): 58%
18F-fallypride displaced in vivo ([2]; dose of 1.88 mg/kg): greater than 50%
18F-fallypride displaced in vivo [2, 19]: approximately 20%
Approximated brain concentration ([14]; dose of 1.88 mg/kg): approximately 100 nM
Approximated brain concentration [14, 19]: 0.6 to 1 nM
pKd ([12]; ref Gonzalez and Sibley, 1995, van Vliet et al.): 7.25 and 7.05
